Measured values from patent US20070287752A1, “Ophthalmic Compositions Comprising A Branched, Glycerol Compound” (priority 2006, published 2007).

What was measured:
Experiment in all cases: Preservative/disinfectant system efficacy testing (log reduction)
Type in all cases: cell-based
[1] = system: Staphylococcus aureus (ATCC 6538)
Description: (§1) The ophthalmic compositions are evaluated in accordance with specific procedures outlined by the US Food & Drug Administration and the International Organization for Standardization for the testing of microbiocidal efficacy.

[2] = system: Candida albicans (ATCC 10231)
Description: as §1

[3] = system: Serratia marcescens (ATCC 13880)
Description: as §1

[4] = system: Fusarium solani (ATCC 36031)
Description: as §1

[5] = 1 hr, Table 5A multi-purpose lens care solution, 10% organic soil, disinfectant concentrations as in label
[6] = 1 hr, phosphate buffered saline, 10% organic soil, concentrations as in label (Table 4)
[7] = 4 hr, Table 5A multi-purpose lens care solution, 10% organic soil, disinfectant concentrations as in label
[8] = 4 hr, phosphate buffered saline, 10% organic soil, concentrations as in label (Table 4)
[9] = EHOPD 0.0001 wt %, 1 hr, borate buffered saline, 10% organic soil
[10] = EHOPD 0.0001 wt %, 1 hr, phosphate buffered saline, 10% Organic Soil
[11] = EHOPD 0.0001 wt %, 4 hr, borate buffered saline, 10% organic soil
[12] = EHOPD 0.0001 wt %, 4 hr, phosphate buffered saline, 10% Organic Soil
[13] = EHOPD 0.001 wt %, 1 hr, borate buffered saline, 10% organic soil
[14] = EHOPD 0.001 wt %, 1 hr, phosphate buffered saline, 10% Organic Soil
[15] = EHOPD 0.001 wt %, 4 hr, borate buffered saline, 10% organic soil
[16] = EHOPD 0.001 wt %, 4 hr, phosphate buffered saline, 10% Organic Soil
[17] = EHOPD 0.01 wt %, 1 hr, Table 3A multi-purpose lens care formulation, 10% organic soil
[18] = EHOPD 0.01 wt %, 1 hr, borate buffered saline, 10% organic soil
[19] = EHOPD 0.01 wt %, 1 hr, phosphate buffered saline, 10% Organic Soil
[20] = EHOPD 0.01 wt %, 4 hr, Table 3A multi-purpose lens care formulation, 10% organic soil
[21] = EHOPD 0.01 wt %, 4 hr, borate buffered saline, 10% organic soil
[22] = EHOPD 0.01 wt %, 4 hr, phosphate buffered saline, 10% Organic Soil
[23] = EHOPD 0.1 wt %, 1 hr, Table 3A multi-purpose lens care formulation, 10% organic soil
[24] = EHOPD 0.1 wt %, 1 hr, borate buffered saline, 10% organic soil
[25] = EHOPD 0.1 wt %, 1 hr, phosphate buffered saline, 10% Organic Soil
[26] = EHOPD 0.1 wt %, 4 hr, Table 3A multi-purpose lens care formulation, 10% organic soil
[27] = EHOPD 0.1 wt %, 4 hr, borate buffered saline, 10% organic soil
[28] = EHOPD 0.1 wt %, 4 hr, phosphate buffered saline, 10% Organic Soil
[29] = EHOPD 0.15 wt %, 1 hr, Table 3A multi-purpose lens care formulation, 10% organic soil
[30] = EHOPD 0.15 wt %, 4 hr, Table 3A multi-purpose lens care formulation, 10% organic soil
[31] = EHOPD 0.25 wt %, 1 hr, Table 3A multi-purpose lens care formulation, 10% organic soil
[32] = EHOPD 0.25 wt %, 4 hr, Table 3A multi-purpose lens care formulation, 10% organic soil
[33] = EHOPD 0.50 wt %, 1 hr, Table 3A multi-purpose lens care formulation, 10% organic soil
[34] = EHOPD 0.5 wt %, 1 hr, borate buffered saline, 10% organic soil
[35] = EHOPD 0.5 wt %, 1 hr, phosphate buffered saline, 10% Organic Soil
[36] = EHOPD 0.50 wt %, 4 hr, Table 3A multi-purpose lens care formulation, 10% organic soil
[37] = EHOPD 0.5 wt %, 4 hr, borate buffered saline, 10% organic soil
[38] = EHOPD 0.5 wt %, 4 hr, phosphate buffered saline, 10% Organic Soil
[39] = EHOPD 0.75 wt %, 1 hr, Table 3A multi-purpose lens care formulation, 10% organic soil
[40] = EHOPD 0.75 wt %, 4 hr, Table 3A multi-purpose lens care formulation, 10% organic soil
[41] = EHOPD 1.0 wt %, 1 hr, Table 3A multi-purpose lens care formulation, 10% organic soil
[42] = EHOPD 1.0 wt %, 4 hr, Table 3A multi-purpose lens care formulation, 10% organic soil

CCCCC(CC)COCC(O)CO (centres unmarked) [EHOPD, 3-[(2-ethylhexyl)oxy]-1,2-propanediol] was tested, and the “log reduction S. aureus” value [1, 5] was 1.2, the “log reduction S. aureus” value [1, 6] was 1.2 and the “log reduction S. aureus” value [1, 7] was 1.2. For the same molecule, the “log reduction S. aureus” value [1, 8] was 1.3, the “log reduction S. aureus” value [1, 9] was 1.4 and the “log reduction S. aureus” value [1, 10] was 1.4. For the same molecule, the “log reduction S. aureus” value [1, 11] was 1.4, the “log reduction S. aureus” value [1, 12] was 1.4 and the “log reduction S. aureus” value [1, 13] was 1.4. The “log reduction S. aureus” value [1, 14] was 1.4, the “log reduction S. aureus” value [1, 15] was 1.4 and the “log reduction S. aureus” value [1, 16] was 1.4. For the same molecule, the “log reduction S. aureus” value [1, 17] was 1.4, the “log reduction S. aureus” value [1, 18] was 1.4 and the “log reduction S. aureus” value [1, 19] was 1.4. The “log reduction S. aureus” value [1, 20] was 1.4, the “log reduction S. aureus” value [1, 21] was 1.4 and the “log reduction S. aureus” value [1, 22] was 1.4. For the same molecule, the “log reduction S. aureus” value [1, 23] was 1.4, the “log reduction S. aureus” value [1, 24] was 1.7 and the “log reduction S. aureus” value [1, 25] was 1.4. For the same molecule, the “log reduction S. aureus” value [1, 26] was 1.4, the “log reduction S. aureus” value [1, 27] was 4.0 and the “log reduction S. aureus” value [1, 28] was 3.0. For the same molecule, the “log reduction S. aureus” value [1, 29] was 1.4, the “log reduction S. aureus” value [1, 30] was 1.4 and the “log reduction S. aureus” value [1, 31] was 1.4. The “log reduction S. aureus” value [1, 32] was 1.4, the “log reduction S. aureus” value [1, 33] was 1.4 and the “log reduction S. aureus” value [1, 34] was 1.8. For the same molecule, the “log reduction S. aureus” value [1, 35] was 1.4, the “log reduction S. aureus” value [1, 36] was 1.8 and the “log reduction S. aureus” value [1, 37] was 4.3. For the same molecule, the “log reduction S. aureus” value [1, 38] was 3.1, the “log reduction S. aureus” value [1, 39] was 1.6 and the “log reduction S. aureus” value [1, 40] was 3.1. For the same molecule, the “log reduction S. aureus” value [1, 41] was 2.2, the “log reduction S. aureus” value [1, 42] was 3.7 and the “log reduction C. albicans” value [2, 5] was 2.1. For the same molecule, the “log reduction C. albicans” value [2, 6] was over 5.0, the “log reduction C. albicans” value [2, 7] was 2.8 and the “log reduction C. albicans” value [2, 8] was over 5.0. The “log reduction C. albicans” value [2, 9] was 2.3, the “log reduction C. albicans” value [2, 10] was 2.3 and the “log reduction C. albicans” value [2, 11] was 2.3. The “log reduction C. albicans” value [2, 12] was 2.3, the “log reduction C. albicans” value [2, 13] was 2.3 and the “log reduction C. albicans” value [2, 14] was 2.3. For the same molecule, the “log reduction C. albicans” value [2, 15] was 2.3, the “log reduction C. albicans” value [2, 16] was 2.3 and the “log reduction C. albicans” value [2, 17] was 2.0. The “log reduction C. albicans” value [2, 18] was 2.3, the “log reduction C. albicans” value [2, 19] was 2.3 and the “log reduction C. albicans” value [2, 20] was 2.0. The “log reduction C. albicans” value [2, 21] was 2.3, the “log reduction C. albicans” value [2, 22] was 2.3 and the “log reduction C. albicans” value [2, 23] was 2.0. For the same molecule, the “log reduction C. albicans” value [2, 24] was 5.4, the “log reduction C. albicans” value [2, 25] was 3.8 and the “log reduction C. albicans” value [2, 26] was 2.0. The “log reduction C. albicans” value [2, 27] was over 5.7, the “log reduction C. albicans” value [2, 28] was over 5.7 and the “log reduction C. albicans” value [2, 29] was 2.0. For the same molecule, the “log reduction C. albicans” value [2, 30] was 2.0, the “log reduction C. albicans” value [2, 31] was 2.0 and the “log reduction C. albicans” value [2, 32] was 2.0. The “log reduction C. albicans” value [2, 33] was 2.0, the “log reduction C. albicans” value [2, 34] was 5.1 and the “log reduction C. albicans” value [2, 35] was 3.8. The “log reduction C. albicans” value [2, 36] was 3.1, the “log reduction C. albicans” value [2, 37] was over 5.7 and the “log reduction C. albicans” value [2, 38] was over 5.7. For the same molecule, the “log reduction C. albicans” value [2, 39] was 4.2, the “log reduction C. albicans” value [2, 40] was over 5.5 and the “log reduction C. albicans” value [2, 41] was over 5.5. The “log reduction C. albicans” value [2, 42] was over 5.5, the “log reduction S. marcescens” value [3, 5] was 2.3 and the “log reduction S. marcescens” value [3, 6] was 3.0. For the same molecule, the “log reduction S. marcescens” value [3, 7] was 3.3, the “log reduction S. marcescens” value [3, 8] was 3.9 and the “log reduction S. marcescens” value [3, 9] was 1.7. The “log reduction S. marcescens” value [3, 10] was 1.7, the “log reduction S. marcescens” value [3, 11] was 1.7 and the “log reduction S. marcescens” value [3, 12] was 1.7. The “log reduction S. marcescens” value [3, 13] was 1.7, the “log reduction S. marcescens” value [3, 14] was 1.7 and the “log reduction S. marcescens” value [3, 15] was 1.7. The “log reduction S. marcescens” value [3, 16] was 3.2, the “log reduction S. marcescens” value [3, 17] was 2.0 and the “log reduction S. marcescens” value [3, 18] was 1.7. The “log reduction S. marcescens” value [3, 19] was over 5.2, the “log reduction S. marcescens” value [3, 20] was 2.0 and the “log reduction S. marcescens” value [3, 21] was 1.7. For the same molecule, the “log reduction S. marcescens” value [3, 22] was over 5.2, the “log reduction S. marcescens” value [3, 23] was 2.0 and the “log reduction S. marcescens” value [3, 24] was 4.8. The “log reduction S. marcescens” value [3, 25] was over 5.2, the “log reduction S. marcescens” value [3, 26] was 2.0 and the “log reduction S. marcescens” value [3, 27] was over 5.2. The “log reduction S. marcescens” value [3, 28] was over 5.2, the “log reduction S. marcescens” value [3, 29] was 2.0 and the “log reduction S. marcescens” value [3, 30] was 4.7. The “log reduction S. marcescens” value [3, 31] was over 5.4, the “log reduction S. marcescens” value [3, 32] was over 5.4 and the “log reduction S. marcescens” value [3, 33] was over 5.4. The “log reduction S. marcescens” value [3, 34] was 4.9, the “log reduction S. marcescens” value [3, 35] was over 5.2 and the “log reduction S. marcescens” value [3, 36] was over 5.4. The “log reduction S. marcescens” value [3, 37] was over 5.2, the “log reduction S. marcescens” value [3, 38] was over 5.2 and the “log reduction S. marcescens” value [3, 39] was over 5.4. For the same molecule, the “log reduction S. marcescens” value [3, 40] was over 5.4, the “log reduction S. marcescens” value [3, 41] was over 5.4 and the “log reduction S. marcescens” value [3, 42] was over 5.4. For the same molecule, the “log reduction F. solani” value [4, 5] was 3.1, the “log reduction F. solani” value [4, 6] was 2.5 and the “log reduction F. solani” value [4, 7] was 5.0. For the same molecule, the “log reduction F. solani” value [4, 8] was 5.0, the “log reduction F. solani” value [4, 9] was 1.3 and the “log reduction F. solani” value [4, 10] was 2.3. For the same molecule, the “log reduction F. solani” value [4, 11] was 2.1, the “log reduction F. solani” value [4, 12] was 2.3 and the “log reduction F. solani” value [4, 13] was 1.9. For the same molecule, the “log reduction F. solani” value [4, 14] was 1.8, the “log reduction F. solani” value [4, 15] was 1.9 and the “log reduction F. solani” value [4, 16] was 2.9. The “log reduction F. solani” value [4, 17] was 0.3, the “log reduction F. solani” value [4, 18] was 2.4 and the “log reduction F. solani” value [4, 19] was 3.6. The “log reduction F. solani” value [4, 20] was 0.5, the “log reduction F. solani” value [4, 21] was over 5.8 and the “log reduction F. solani” value [4, 22] was over 5.8. For the same molecule, the “log reduction F. solani” value [4, 23] was 0.3, the “log reduction F. solani” value [4, 24] was over 5.8 and the “log reduction F. solani” value [4, 25] was over 5.8. For the same molecule, the “log reduction F. solani” value [4, 26] was 0.5, the “log reduction F. solani” value [4, 27] was over 5.8 and the “log reduction F. solani” value [4, 28] was over 5.8. The “log reduction F. solani” value [4, 29] was 0.5, the “log reduction F. solani” value [4, 30] was over 4.7 and the “log reduction F. solani” value [4, 31] was 0.8. For the same molecule, the “log reduction F. solani” value [4, 32] was over 4.7, the “log reduction F. solani” value [4, 33] was over 4.7 and the “log reduction F. solani” value [4, 34] was over 5.8. For the same molecule, the “log reduction F. solani” value [4, 35] was over 5.8, the “log reduction F. solani” value [4, 36] was over 4.7 and the “log reduction F. solani” value [4, 37] was over 5.8. For the same molecule, the “log reduction F. solani” value [4, 38] was over 5.8, the “log reduction F. solani” value [4, 39] was over 4.7 and the “log reduction F. solani” value [4, 40] was over 4.7. The “log reduction F. solani” value [4, 41] was over 4.7 and the “log reduction F. solani” value [4, 42] was over 4.7.
